According to patent EP4321023A1, “MOSQUITO REPELLENT COMPOSITION COMPRISING YARROW ESSENTIAL OIL” (National Hellenic Research Foundation, priority 2022, dated 2024):

Tests used:
[1] = tested on: Epiderm™ tissues; assay: EpiDerm skin irritation test (EPI-200-SIT), MTT tissue viability; type: cell-based, human
Source text: The EpiDerm™ skin irritation test kit (Schafer-Korting, Bock et al., 2008) (EPI-200-SIT) was purchased by MatTek (https://www.mattek.com/) and used in this study. The value of this method lies in that it provides in vivo prediction for classification testing of the nano-emulsions as irritant or non-irritant, based on in vitro results. According to the EU and GHS classification (R38/ Category 2 or no label), an irritant is predicted if the mean relative tissue viability of individual tissues exposed to the test substance is reduced below 50% of the mean viability of the negative controls run in parallel.
The experimental procedure for the skin irritation test is the following. Fresh tissues are transferred onto 6-well plates and pre-incubated under standard culture conditions for 1 hour in the assay medium (DMEM based medium, MatTek). Then, the assay medium is replaced by fresh assay medium, and tissues are incubated overnight. […] Then, the blue formazan salt formed by cellular mitochondria is extracted with 2.0 ml/tissue of isopropanol (extractant solution, part # MTT-100-EXT) and the optical density of the extracted formazan is determined at 570 nm using a spectrophotometer. Relative tissue viability is calculated for each tissue as % of the mean viability of the negative control tissues. […]

[2] = tested on: EpiOcular™ tissues; type: cell-based; conditions: human, 30 min, 200 µg EO/cm^2
Experimental: The EpiOcular™ eye irritation test (Stern, Klausner et al., 1998) (OCL-200-EIT) purchased by MatTek was used in this study to evaluate the eye irritation potential of nano-emulsion 1 of Example 2 (Yarrow essential oil (2% Achillea millefolium essential oil)) or of nano-emulsion 2 of Example 2 (mixture of 1% Yarrow essential oil (Achillea millefolium essential oil) with 1% Lavandin oil (Hybrid Lavandula intermedia essential oil) [1:1 w/w]).
Fresh tissues are equilibrated at RT for 15 min, then, transferred onto 6-well plates and pre-incubated at standard culture conditions for 1 hour in assay medium, which is DMEM based medium (MatTek), then, replaced, and tissues are incubated overnight under standard culture conditions. The tissues are prehydrated with Ca^++Mg^++Free-DPBS and incubated at standard culture conditions for 30±2 min. Each nano-emulsion (dose: 200 µg EO/cm^2) and control samples are applied topically on the EpiOcular™ tissues. The tissues are incubated for 30±2 min followed by removal of the nano-emulsions by extensive rinsing of the tissues with Ca^++Mg^++Free-DPBS. […] Finally, the MTT assay is performed, and the relative tissue viability is calculated for each tissue as % of the mean viability of the negative control tissues. […]

[3] = tested on: 3D human skin tissues; assay: Histological analysis (eosin and hematoxylin) after 48 h topical application; type: cell-based; conditions: dose 200 µg EO/cm^2, 48 hours; Figure 8
Experimental: Following topical application of nano-emulsion 1 of Example 2 (Yarrow essential oil (2% Achillea millefolium essential oil)) or of nano-emulsion 2 of Example 2 (mixture of 1% Yarrow essential oil (Achillea millefolium essential oil) with 1% Lavandin oil (Hybrid Lavandula intermedia essential oil) [1:1 w/w]) on 3D human skin tissues, for 48 hours, skin specimens are collected and further processed for: [1] histological analysis (Furio, Pampalakis et al., 2015) and [2] molecular analysis.
First, 3D-reconstructed human skin tissue culture media is replaced with fresh, pre-warmed media. Under sterile conditions, tissues are exposed topically to each test nano-emulsion (dose, 200 µg EO/cm^2). 5% SDS a widely known skin irritant was used as positive control. […] Alternatively, total RNA was extracted from 3D human skin tissues (Macherey-Nagel) to quantify relative expression of tight junction proteins with the aim to test for potential alterations in expression levels (Figure 9 ). Then, synthesized cDNAs (SuperScript™ First-Strand Synthesis System for RT-PCR, Invitrogen) were used as template for RT-qPCR (SYBR™ Select, Applied Biosystems) to quantify the relative expression levels of tight junction proteins encoding genes using the gene-specific primers enlisted in Table 8. […]

With `COC(C)=O` [PC, methyl acetate] the Classification ([1]; skin irritation, prediction model developed by MatTek) was “I, qualified (I, irritant)”, the “Mean of viabilities, %” value ([1]; skin, dose 200 µg EO/cm^2, 60±1 min exposure, % of mean viability of negative control, 2 tissues) was 2.828% and the “Mean of viabilities, %” value [2] was 13.46%. The “skin morphology by eosin and hematoxylin staining” value [3] was “high degree of damage”.
